# Literature values, collected in paper PMC10080691, “Enzyme-Responsive Double-Locked Photodynamic Molecular Beacon for Targeted Photodynamic Anticancer Therapy” (Journal of the American Chemical Society, 2023).
# Experiments:
# [1] = in DMF; reference standard value; cited from earlier work
# Excerpt: The electronic absorption and fluorescence spectra of PMB 1 were first recorded in DMF and compared with those of the components 8 and 11, as well as the non-cleavable analogue 14 (Figure S2 and Table 1). […] In ...
# [2] = in DMF; reference standard value; cited from earlier work; remark: listed apart in the source
# Excerpt: The singlet oxygen generation efficiency of 1 was then studied and compared with that of 8, 14, and ZnPc in all these media using 1,3-diphenylisobenzofuran (DPBF) as the singlet oxygen probe.[67] The absorbance of DPBF’s absorption at 415 nm (in DMF) or 417 nm (in PBS and the buffer) was monitored during light irradiation (λ > 610 nm). Figures S4–S6 show the changes in the absorption spectra of the mixtures in DMF, PBS, and the buffer, respectively, upon irradiation. It can be seen that in all these media while 8 and ZnPc could effectively sensitize the formation of singlet oxygen to induce su ...
smiles,measurement,setting,value
"[Zn+2].c1ccc2c(c1)-c1nc-2nc2[n-]c(nc3nc([n-]c4nc(n1)-c1ccccc1-4)-c1ccccc1-3)c1ccccc21 [ZnPc, zinc(II) phthalocyanine]",ΦF (fluorescence quantum yield) of reference,[1],0.28
same,ΦΔ (singlet oxygen quantum yield) of reference,[2],0.56
